In patent US20090004677A1, “QUANTITATIVE DETERMINATION OF BCL10” (The Board of Trustees of the University of Illinois, priority 2007, published 2009):

How the values were obtained:
IL-8 = experiment: ELISA for IL-8 in spent media of NCM460 cells; assay type: cell-based, human
Description: NCM460 and primary colon cells were treated with different concentrations (1, 10 and 20 ng/ml) of lipopolysaccharide (LPS; from E. coli 026:B6, #L2654, Sigma-Aldrich, St. Louis, Mo.) for durations of 2, 4, 6, or 24 hours. The endotoxin level of the LPS from E. coli was reported as 500,000 EU (Endotoxin Units)/mg LPS. The secretion of IL-8 and the cellular content of Bcl10 and phospho-IκBα proteins in response to these treatments were assayed. In the majority of experiments, LPS 10 ng/ml for 6 hours was selected as the optimal dose and duration. A second LPS (from Salmonella enterica serotype Minnesota; #L4641, Sigma-Aldrich, St. Louis, Mo.) was also used for some of the experiments. The endotoxin level of the batch of Salmonella enterica was reported as 800,000 EU/mg LPS.
The secretion of IL-8 in the spent media of control and treated NCM460 cells and primary colon cells was measured by the DuoSet Enzyme-linked Immunosorbent Assay (ELISA) kit for human IL-8 (R&D Systems Inc, Minneapolis, Minn.), according to the manufacturer's instructions. The IL-8 in the spent media was captured into the wells of a microtiter plate pre-coated with specific anti-IL-8 monoclonal antibody. Immobilized IL-8 was then detected by biotin-conjugated secondary IL-8 antibody and Streptavidin-HRP. Hydrogen peroxide/tetramethylbenzidine chromogenic substrate was used to develop the color and the intensity of color was measured at 450 nm with a reference filter of 570 nm in an ELISA plate reader (SLT, Spectra). The IL-8 concentrations were extrapolated from a standard curve plotted using known concentrations of IL-8. The sample values were normalized with total protein content (BCA™ Protein assay kit; Pierce, Rockford, Ill.) and expressed as pg or ng/mg cellular protein.

Bcl10 = experiment: solid-phase sandwich ELISA for Bcl10 in NCM460 cells; assay type: cell-based, human
Description: NCM460 and primary colon cells were treated with different concentrations (1, 10 and 20 ng/ml) of lipopolysaccharide (LPS; from E. coli 026:B6, #L2654, Sigma-Aldrich, St. Louis, Mo.) for durations of 2, 4, 6, or 24 hours. The endotoxin level of the LPS from E. coli was reported as 500,000 EU (Endotoxin Units)/mg LPS. The secretion of IL-8 and the cellular content of Bcl10 and phospho-IκBα proteins in response to these treatments were assayed. […] A second LPS (from Salmonella enterica serotype Minnesota; #L4641, Sigma-Aldrich, St. Louis, Mo.) was also used for some of the experiments. The endotoxin level of the batch of Salmonella enterica was reported as 800,000 EU/mg LPS.
The expression of Bcl10 in NCM460 cells or primary colon cells was determined by a solid-phase sandwich ELISA designed to quantify cellular Bcl10. Control or treated cells were lysed in RIPA buffer (50 mM Tris-HCl containing 0.15 M NaCl, 1% Nonidet P40, 0.5% deoxycholic acid and 0.1% SDS, pH 7.4) and the cell extracts were stored at −80° C. until assayed. Bcl10 molecules in the samples or standards were captured in the wells of a microtiter plate pre-coated with rabbit polyclonal antibody to Bcl10 (QED Bioscience Inc., San Diego, Calif.). Immobilized Bcl10 molecules were detected by a mouse monoclonal antibody to Bcl10 (Novus Biologicals, Littleton, Colo.) and goat anti-mouse IgG-horseradish peroxidase (HRP) complex (Santa Cruz Biotechnology, Santa Cruz, Calif.). The peroxidase enzyme activity bound to Bcl10 molecules was determined by chromogenic reaction with hydrogen peroxide/tetramethylbenzidine. Color development due to enzymatic activity was stopped by 2N sulfuric acid, and intensity of the color was measured at 450 nm in ELISA Plate reader (SLT, Spectra). Bcl10 concentrations of the samples were extrapolated from a standard curve derived using known concentrations of recombinant Bcl10 (Calbiochem, EMD Bioscience, San Diego, Carlsbad, Calif.). Sample values were normalized with the total cell protein concentrations determined by BCA™ Protein assay kit (Pierce, Rockford, Ill.). […]

[1] = NCM460 cells, 50 μM inhibitor 2 hours prior to 6 hours LPS 10 ng/ml
[2] = human IEC, LPS 10 ng/ml for 2-6 hours

SMILES: O=C(Nc1nc2ccccc2n1CCN1CCOCC1)c1cccc([N+](=O)[O-])c1 [IRAK 1/4 inhibitor, N-(2-morpholinylethyl)-2-(3-nitrobenzoylamido)-benzimidazole]
- IL-8 after LPS with IRAK 1/4 inhibitor (IL-8; [1]): 1.14 ± 0.08 ng/mL
- decline of the LPS-induced increase in IL-8 response (IL-8; [1]): 60%
- effect on the LPS-induced increase in IL-8 (result in words) (IL-8; [2]): eliminated
- Bcl10 after LPS with IRAK 1/4 inhibitor (Bcl10; [1]): 2.36 ± 0.08 ng/mL
- decline of the LPS-induced increase in Bcl10 (Bcl10; [1]): 73%
- effect on the LPS-induced increase in Bcl10 (result in words) (Bcl10; [2]): eliminated
